Tested on: CCL2
Test: ELISA of CCL2 levels in the supernatant of keratinocyte cultures treated with EGFR inhibitor PD168393 and/or HDAC inhibitors
Format: cell-based
Settings: then PD168393 24 hours (FIG. 1)
Excerpt: Results are expressed as the mean of three independent experiments ±SD.

## CC(/C=C/C(=O)NO)=C\[C@@H](C)C(=O)c1ccc(N(C)C)cc1 [trichostatin A]
Keratinocytes pre-treated with HDAC inhibitor 5 nM for 2 hours
  effect on PD168393-induced up-regulation of CCL2 levels: suppressed

## CCCC(CCC)C(=O)O [valproic acid]
Keratinocytes pre-treated with HDAC inhibitor for 2 hours
  effect on PD168393-induced up-regulation of CCL2 levels: suppressed

From patent US20120114745A1, “METHOD FOR TREATING OR AMELIORATING MUCOCUTANEOUS OR OCULAR TOXICITIES” (priority 2009, published 2012)
